Inhibition data for 1 compound are collected here from patent US11572590B2, “Methods for evaluating tumor cell spheroids using 3D microfluidic cell culture device” (Dana-Farber Cancer Institute, Inc., priority 2017, dated 2023).

Each structure is given as a SMILES string. Where two headings read alike, the source gives them in different places.

Common to all, as to test: SelectScreen Kinase Profiling, single point inhibition and IC50 for off-target kinases
Holding throughout (format): biochemical

For experiment [1], the target named is off-target kinases (Homo sapiens, UniProt P00533). The following applies: EGFR (ErbB1), ZLYTE, ATP Km app. Here is the method:
(§1) Biochemical single point inhibition and IC50 concentrations for TBK1, IKKε (IKBKE), and off-target kinases were determined at ThermoFisher Scientific using SelectScreen Kinase Profiling Services (Madison, Wis., USA) (Tables S4A and S4B-1-7). To determine cellular potency, the human colorectal cancer carcinoma cell line HCT116 (ATCC, Manassas, Va.) was maintained in T175 flasks in complete RPMI medium; RPMI 1640 supplemented with 10% FBS, 1× Penicillin-Streptomycin solution and 1×MEM (non-essential amino acids). HCT116 cells were grown to 90-95% confluency in T175 flasks containing complete RPMI medium and transfected in bulk using Lipofectamine 2000 (Invitrogen, Carlsbad, Calif.) with 70 μg of ISG54-luciferase reporter plasmid (Elim Biopharmaceuticals Inc., Hayward, Calif.). The reporter plasmid contains a luciferase gene expression cassette under the transcriptional regulation of the promoter of the human interferon stimulated gene 54 (ISG54). Transfection of the cells was allowed to take place for 6 hours, after which the cells were harvested by treatment with 0.25% trypsin EDTA (Corning Inc., Corning, N.Y.). Trypsinized cells were added to 384-well poly-d-lysine treated black clear bottom tissue culture assay plates (Greiner Bio-One GmbH, Kremsmünster, Austria) at a density of 20,000 cells/well in 80 μL of complete RPMI medium and incubated overnight. After 16-18 hours post-transfection, the assay plates were washed with PBS (Corning Inc., Corning, N.Y.), followed by addition of 80 μL/well of serum-free RPMI 1640 medium containing 1× Penicillin-Streptomycin solution, 1×MEM and 350 nL of DMSO or titrations of Compound 1. Compound 1 titrations were generated by 1.5-fold dilution steps in two overlapping serial dilution series to generate a 40-point compound dose range. After incubation at 37° C. for 1 hour, the cells were stimulated with Poly(I:C) (InvivoGen, San Diego, Calif.) at a final concentration of 15 μg/mL in Optimem media (Life Technologies, Rockville, Md.). The assay plates were incubated for 5 hours at 37° C., followed by addition of One-Glo luciferase firefly reagent (Promega, Madison, Wis.) at 1:1 volume/well and luminescence was measured in an EnVision Multilabel Plate Reader (PerkinElmer, Santa Clara, Calif.). The EC50 values were calculated from the fit of the dose-response curves to a four-parameter equation. All EC50 values represent geometric mean values of a minimum of four determinations.

Experiment [2] deals with off-target kinases (Homo sapiens, UniProt P37173). The following applies: TGFBR2, LanthaScreen Binding. How it is done: as §1
off-target kinases (Homo sapiens, UniProt P37173), sequence (P37173 23-567): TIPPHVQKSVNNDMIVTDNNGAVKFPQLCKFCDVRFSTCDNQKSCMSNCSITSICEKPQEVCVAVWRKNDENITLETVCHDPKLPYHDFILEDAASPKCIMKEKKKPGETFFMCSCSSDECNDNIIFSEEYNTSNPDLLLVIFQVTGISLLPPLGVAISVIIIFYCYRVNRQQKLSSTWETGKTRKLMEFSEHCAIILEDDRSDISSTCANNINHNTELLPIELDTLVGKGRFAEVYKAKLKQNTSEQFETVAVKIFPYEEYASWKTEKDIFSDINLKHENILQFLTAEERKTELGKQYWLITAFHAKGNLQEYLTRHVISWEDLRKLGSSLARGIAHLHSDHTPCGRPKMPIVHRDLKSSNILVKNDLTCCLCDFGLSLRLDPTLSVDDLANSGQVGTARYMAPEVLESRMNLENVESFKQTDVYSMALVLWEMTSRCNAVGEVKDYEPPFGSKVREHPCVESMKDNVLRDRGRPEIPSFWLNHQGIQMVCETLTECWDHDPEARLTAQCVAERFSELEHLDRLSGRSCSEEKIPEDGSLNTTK
On the technique in general: In TR-FRET formats the signal depends on donor and acceptor labels being close together.

Experiment [3] concerns the target T1, off-target kinases (Homo sapiens, UniProt P53778).
T1 sequence (P53778 1-367): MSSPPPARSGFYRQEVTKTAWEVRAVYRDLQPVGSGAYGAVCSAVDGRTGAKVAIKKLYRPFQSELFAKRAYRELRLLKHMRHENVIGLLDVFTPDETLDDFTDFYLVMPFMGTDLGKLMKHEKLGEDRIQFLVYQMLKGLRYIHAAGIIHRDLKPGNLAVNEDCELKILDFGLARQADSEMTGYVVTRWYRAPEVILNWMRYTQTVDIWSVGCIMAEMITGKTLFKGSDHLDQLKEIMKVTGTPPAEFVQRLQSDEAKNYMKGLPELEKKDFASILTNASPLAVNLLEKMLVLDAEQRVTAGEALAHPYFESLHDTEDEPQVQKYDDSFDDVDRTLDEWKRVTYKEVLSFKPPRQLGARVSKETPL
The conditions noted are these: MAPK12 (p38 gamma), ZLYTE, ATP Km app. Here is the method:
as §1

For experiment [4], the target named is off-target kinases (Homo sapiens, UniProt Q9NQU5). The conditions noted are these: PAK6, ZLYTE, ATP Km app. How it is done:
as §1

Experiment [5] addresses off-target kinases (Homo sapiens, UniProt P11362). The following applies: FGFR1, ZLYTE, ATP Km app. How it is done:
as §1

Experiment [6] concerns the target T2, off-target kinases (Homo sapiens, UniProt Q32MK0).
T2 sequence (Q32MK0 1-819): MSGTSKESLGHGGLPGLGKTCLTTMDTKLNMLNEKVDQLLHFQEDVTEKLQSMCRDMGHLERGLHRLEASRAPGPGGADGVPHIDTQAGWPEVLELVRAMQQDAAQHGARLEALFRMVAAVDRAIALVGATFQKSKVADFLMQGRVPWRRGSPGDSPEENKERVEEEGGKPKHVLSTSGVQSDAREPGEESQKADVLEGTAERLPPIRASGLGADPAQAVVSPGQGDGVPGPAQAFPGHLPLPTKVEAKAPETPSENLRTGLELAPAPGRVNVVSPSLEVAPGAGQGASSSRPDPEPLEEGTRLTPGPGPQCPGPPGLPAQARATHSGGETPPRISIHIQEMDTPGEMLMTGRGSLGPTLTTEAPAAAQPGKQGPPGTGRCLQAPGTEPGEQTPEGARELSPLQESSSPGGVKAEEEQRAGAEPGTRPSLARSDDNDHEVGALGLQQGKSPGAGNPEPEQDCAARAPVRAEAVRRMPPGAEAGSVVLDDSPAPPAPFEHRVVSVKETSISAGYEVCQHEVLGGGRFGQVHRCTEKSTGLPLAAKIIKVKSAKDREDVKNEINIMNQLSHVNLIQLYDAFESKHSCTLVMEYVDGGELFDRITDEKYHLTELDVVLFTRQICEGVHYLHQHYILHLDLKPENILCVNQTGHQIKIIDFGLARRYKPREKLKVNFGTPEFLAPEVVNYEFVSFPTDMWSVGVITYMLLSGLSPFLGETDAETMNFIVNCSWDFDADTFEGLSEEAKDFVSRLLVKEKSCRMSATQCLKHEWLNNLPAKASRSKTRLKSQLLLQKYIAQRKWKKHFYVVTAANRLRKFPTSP
The following applies: MLCK (MLCK2), LanthaScreen Binding. How it is done:
as §1

off-target kinases (Homo sapiens, UniProt P00533), sequence (P00533 25-1210): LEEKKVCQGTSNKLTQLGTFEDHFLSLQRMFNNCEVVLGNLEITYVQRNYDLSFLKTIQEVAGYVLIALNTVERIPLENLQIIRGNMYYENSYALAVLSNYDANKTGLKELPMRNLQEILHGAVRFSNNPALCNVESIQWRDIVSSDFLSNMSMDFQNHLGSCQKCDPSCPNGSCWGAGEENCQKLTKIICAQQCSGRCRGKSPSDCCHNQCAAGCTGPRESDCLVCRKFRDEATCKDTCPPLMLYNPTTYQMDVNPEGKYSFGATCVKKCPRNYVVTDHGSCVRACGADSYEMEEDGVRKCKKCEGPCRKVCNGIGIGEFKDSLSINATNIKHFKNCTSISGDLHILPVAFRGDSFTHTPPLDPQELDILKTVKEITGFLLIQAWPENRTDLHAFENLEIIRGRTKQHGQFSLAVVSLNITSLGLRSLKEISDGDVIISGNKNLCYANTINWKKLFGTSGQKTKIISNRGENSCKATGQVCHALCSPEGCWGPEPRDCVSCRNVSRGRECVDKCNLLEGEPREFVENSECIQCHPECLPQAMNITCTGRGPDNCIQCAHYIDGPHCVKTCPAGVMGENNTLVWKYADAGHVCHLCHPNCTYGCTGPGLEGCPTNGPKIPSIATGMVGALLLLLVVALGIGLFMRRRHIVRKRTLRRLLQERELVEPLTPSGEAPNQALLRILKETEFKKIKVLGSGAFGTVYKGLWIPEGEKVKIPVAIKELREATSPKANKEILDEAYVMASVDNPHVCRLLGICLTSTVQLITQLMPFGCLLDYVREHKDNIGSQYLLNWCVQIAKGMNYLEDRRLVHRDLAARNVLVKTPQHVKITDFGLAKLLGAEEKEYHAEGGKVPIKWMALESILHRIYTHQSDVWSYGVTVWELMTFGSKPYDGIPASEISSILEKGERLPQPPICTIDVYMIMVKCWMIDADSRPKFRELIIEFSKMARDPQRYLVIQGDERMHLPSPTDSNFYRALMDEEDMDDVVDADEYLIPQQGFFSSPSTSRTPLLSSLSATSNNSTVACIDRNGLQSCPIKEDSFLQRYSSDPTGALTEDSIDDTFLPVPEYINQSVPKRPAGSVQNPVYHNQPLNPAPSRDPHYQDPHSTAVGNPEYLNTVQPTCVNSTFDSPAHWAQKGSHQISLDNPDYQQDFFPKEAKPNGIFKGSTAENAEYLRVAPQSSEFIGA
off-target kinases (Homo sapiens, UniProt Q9NQU5), sequence (Q9NQU5 whole entry): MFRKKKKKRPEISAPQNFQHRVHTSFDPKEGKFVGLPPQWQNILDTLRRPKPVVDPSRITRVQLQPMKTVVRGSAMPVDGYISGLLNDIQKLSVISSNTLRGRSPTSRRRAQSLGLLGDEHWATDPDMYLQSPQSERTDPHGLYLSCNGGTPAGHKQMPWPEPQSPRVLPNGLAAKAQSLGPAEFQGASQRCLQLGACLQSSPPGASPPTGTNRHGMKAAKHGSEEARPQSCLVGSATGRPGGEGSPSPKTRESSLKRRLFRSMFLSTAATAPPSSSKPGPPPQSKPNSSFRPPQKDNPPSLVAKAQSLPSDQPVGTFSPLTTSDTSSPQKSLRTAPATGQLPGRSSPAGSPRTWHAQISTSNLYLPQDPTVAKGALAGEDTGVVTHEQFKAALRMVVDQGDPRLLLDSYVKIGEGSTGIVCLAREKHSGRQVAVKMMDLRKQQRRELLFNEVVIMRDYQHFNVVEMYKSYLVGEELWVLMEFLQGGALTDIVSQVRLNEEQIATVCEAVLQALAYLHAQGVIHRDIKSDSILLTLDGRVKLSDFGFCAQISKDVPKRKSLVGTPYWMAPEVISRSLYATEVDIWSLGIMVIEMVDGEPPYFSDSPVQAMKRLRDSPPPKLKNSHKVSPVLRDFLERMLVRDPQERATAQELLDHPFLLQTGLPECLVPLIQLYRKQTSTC
off-target kinases (Homo sapiens, UniProt P11362), sequence (P11362 22-822): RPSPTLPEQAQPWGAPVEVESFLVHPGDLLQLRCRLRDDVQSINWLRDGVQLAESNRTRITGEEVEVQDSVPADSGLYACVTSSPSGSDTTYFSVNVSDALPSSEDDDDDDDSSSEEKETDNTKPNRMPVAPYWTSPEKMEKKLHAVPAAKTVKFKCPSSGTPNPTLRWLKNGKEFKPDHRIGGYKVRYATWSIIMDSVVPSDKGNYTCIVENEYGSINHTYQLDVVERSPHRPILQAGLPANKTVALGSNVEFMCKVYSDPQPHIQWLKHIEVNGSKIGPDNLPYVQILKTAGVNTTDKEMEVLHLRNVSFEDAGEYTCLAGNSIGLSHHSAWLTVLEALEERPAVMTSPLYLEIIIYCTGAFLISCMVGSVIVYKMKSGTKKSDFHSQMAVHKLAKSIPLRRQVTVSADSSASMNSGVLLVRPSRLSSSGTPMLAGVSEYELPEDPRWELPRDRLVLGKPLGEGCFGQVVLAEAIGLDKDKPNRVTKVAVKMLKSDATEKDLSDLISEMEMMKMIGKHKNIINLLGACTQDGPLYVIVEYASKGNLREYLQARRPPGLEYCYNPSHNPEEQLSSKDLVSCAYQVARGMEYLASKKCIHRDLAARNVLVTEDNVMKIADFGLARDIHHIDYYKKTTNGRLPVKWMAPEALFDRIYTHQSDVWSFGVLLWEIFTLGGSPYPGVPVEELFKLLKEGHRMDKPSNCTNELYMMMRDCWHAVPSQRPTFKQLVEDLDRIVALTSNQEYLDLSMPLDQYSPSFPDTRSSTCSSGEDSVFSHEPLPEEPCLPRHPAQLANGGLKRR

The inhibition is the drop in the measured response relative to a control, in per cent. As to `N#Cc1cc(-c2ncnc(Nc3ccc(N4CCN(C5COC5)CC4)cc3)n2)ccc1OC1CCOCC1` [Compound 1, 5-(4-((4-(4-(oxetan-3-yl)piperazin-1-yl)phenyl)amino)-1,3,5-triazin-2-yl)-2-((tetrahydro-2H-pyran-4-yl)oxy)benzonitrile], the inhibition on off-target kinases [1] (read-out: % Inhibition 1) worked out at 10%; on off-target kinases [1] (read-out: % Inhibition 2) it was 9%; at off-target kinases [1] (read-out: % Inhibition Avg) it was 9%; at off-target kinases [2] (read-out: % Inhibition 1), 92%; on off-target kinases [2] (read-out: % Inhibition 2), 95%; on off-target kinases [2] (read-out: % Inhibition Avg), 93%. The inhibition came to 4% at off-target kinases [3] (read-out: % Inhibition 1); 3% at off-target kinases [3] (read-out: % Inhibition 2); 3% at off-target kinases [3] (read-out: % Inhibition Avg); 9% at off-target kinases [4] (read-out: % Inhibition 1); 4% on off-target kinases [4] (read-out: % Inhibition 2); 6% on off-target kinases [4] (read-out: % Inhibition Avg). Further, the inhibition was -5% on off-target kinases [5] (read-out: % Inhibition 1); -2% on off-target kinases [5] (read-out: % Inhibition 2); -3% on off-target kinases [5] (read-out: % Inhibition Avg); 92% on off-target kinases [6] (read-out: % Inhibition 1); 93% at off-target kinases [6] (read-out: % Inhibition 2); 93% on off-target kinases [6] (read-out: % Inhibition Avg).
